Assay results as given in US20260097022A1, “COMPOUNDS AND USES THEREOF” (Integrated Biosciences, Inc., priority 2023, published 2026).

What was measured:
[1] = system: Salmonella typhimurium TA100; test: Genotoxicity assay (Ames 384-ISO test); assay type: cell-based; settings: 100 μM
Experimental: Genotoxicity assay. An Ames 384-ISO test (6041-1S) from Environmental Bio-Detection Products, Inc, was used following the manufacturer's instructions. Briefly. Salmonella typhimurium TA100 was grown overnight (16-18 h) at 37° C., with shaking at 300 rpm and treated with the provided exposure media and compound samples at the final concentrations indicated. Treatment with the provided 4-nitroquinoline 1-oxide (4NQO), a mutagen, was used as a positive control. Cells were then added to the provided reversion solution, and each sample was split into 48 wells of 384-well plates. Plates were incubated at 37° C., for 2 days, after which the number of revertant (yellow-colored) wells corresponding to each sample was counted. […] An overnight bacterial culture was diluted 1:10.000 in LB medium (Becton Dickinson 244620) and plated using 99 μL working volumes into the wells of a clear flat-bottom 96-well plate. One μL of two-fold dilutions of each test compound in DMSO, starting from a final concentration of 500 μM, was added across wells, and plates were sealed and incubated overnight at 37° C., to determine bacterial growth.

[2] = system: etoposide-treated IMR-90 cells; test: Etoposide-induced senescence model, resazurin cell viability (screen and dose-response); assay type: cell-based, human; settings: for effect on Sncs and control cells versus DMSO: concentrations between 1.5 to 3 μM, 3 days
Procedure, shortened: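 IMR-90 fibroblasts made senescent with 50 μM etoposide for 2 days, then 4 days recovery before plating. Compounds at 10 μM or 1 μM final (screen) or three-fold dilutions (1% DMSO) for 3 days, then 0.15 mM resazurin 1 day, fluorescence 550/590 nm. Viability expressed as fraction of untreated controls; biological duplicates.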

HepG2 cells = test: Cytotoxicity against HepG2 cells (resazurin); assay type: cell-based, human; settings: 3 days treatment, curve-fitting, two biological replicates
Experimental: (§1) Measuring cytotoxicity against HepG2 and HEK293 cells. Cytotoxicity in human embryonic kidney (HEK293) and liver carcinoma (HepG2) cells was assayed as above using a resazurin assay. Cells were obtained from ATCC (ATCC CRL-1573 and HB-8065), passaged <10 times, and grown in Dulbecco's modification of Eagle's Medium (DMEM: Corning 10^−013-CV) supplemented with 10% FBS and 1% penicillin-streptomycin. 99 μL of cells were plated into each well of a 96-well clear flat-bottom, black polystyrene tissue-culture-treated plate at a density of ˜10+ cells/well, and plates were incubated overnight for adhesion. The day after plating. 1 μL of each compound, prepared as two-fold serial dilutions of 5 mM stock solutions in DMSO, was added to each well. Cells were incubated for 3 days, after which resazurin was added to each well to a final concentration of 0.15 mM. After an additional 1 day of incubation, the fluorescence excitation/emission at 550/590 nm was read using a SpectraMax M3 plate reader. Experiments were performed in biological duplicate. IC50 values were determined by normalizing with respect to the fluorescence intensity values of untreated control cells on day 3, as described in Calculation of cellular viability values in dose-response curves above.

HEK293 cells = test: Cytotoxicity against HEK293 cells (resazurin); assay type: cell-based, human; settings: 3 days treatment, curve-fitting, two biological replicates
Experimental: as §1

[3] = ratio of IC50 values for vehicle- and etoposide-treated IMR-90 cells, 3 days treatment

O=C(Nc1ccc(S(=O)(=O)Nc2ncccn2)cc1)c1ccc(-c2ccccc2)cc1 [BRD-K20733377]
reversion of bacterial cultures (mutagenic potential) [1]: did not induce significant reversion
effect on Sncs and control cells versus DMSO [2]: selective elimination of Sncs and no difference in the viabilities of control cells
Therapeutic Index (TI) [2, 3]: 8.3
IC50 (HepG2 cells): 70.3 µM
IC50 (HEK293 cells): 51.1 µM

COc1ccc(C(=O)Nc2ccc3nc(SCC(=O)Nc4ccccc4F)sc3c2)cc1OC [compound 6]
reversion of bacterial cultures (mutagenic potential) [1]: did not induce significant reversion
effect on Sncs and control cells versus DMSO [2]: selective elimination of Sncs and no difference in the viabilities of control cells
IC50 (HepG2 cells; Homo sapiens, HepG2, 72 h): 421 µM
IC50 (HEK293 cells; Homo sapiens, HEK293, 72 h): 21.4 µM

Cc1ccccc1C(=O)Nc1ccc2nc(SCC(=O)Nc3ccccc3)sc2c1 [compound 19]
reversion of bacterial cultures (mutagenic potential) [1]: did not induce significant reversion
effect on Sncs and control cells versus DMSO [2]: selective elimination of Sncs and no difference in the viabilities of control cells
Therapeutic Index (TI) ([2]; etoposide-induced senescence model, ratio of IC50 values between etoposide- and DMSO-treated IMR-90 fibroblasts): +++ (compounds with a TI of >5 were labeled as +++)
Therapeutic Index (TI) [2, 3]: 4.7
IC50 (HepG2 cells; Homo sapiens, HepG2, 72 h): 383 µM
IC50 (HEK293 cells; Homo sapiens, HEK293, 72 h): 160 µM
